From BindingDB's records for doi:10.1021/jm010066k (The University of Newcastle, 2002) come the findings set out here.

Numbered stars: 1 amine (or outer) side, 2 acyl side, 3 side chain; on linkers, the order of the positions; unused ones are H or OH. Bridge positions count the residues as written; N and C are the ends. Square brackets hold non-standard residues; d marks the D form. Peptide text beside a SMILES is read from it. Adda = CO[C@@H](Cc1ccccc1)[C@@H](C)/C=C(C)/C=C/[C@H](N[*:1])[C@H](C)C(=O)[*:2]; X1 = CC(C)C[C@H](N[*:1])C(=O)C[C@@H](C(=O)O)[C@H](C)C(=O)[*:2]; NMeDha = C=C(NC)C(=O)O

The nature of the test: Inhibition of microcystin analogues to catalytic subunits of Serine/threonine protein phosphatase 2A (PP2Ac).
`CO[C@@H](Cc1ccccc1)[C@@H](C)/C=C(C)/C=C/[C@@H]1NC(=O)[C@H](C)NC(=O)[C@@H](C)[C@H](C(=O)O)CC(=O)[C@H](CC(C)C)NC(=O)[C@@H](C)NC(=O)CN(C2CCCCC2)C(=O)CC[C@H](C(=O)O)NC(=O)[C@H]1C` [7-Cyclohexyl-25-isobutyl-15-(6-methoxy-3,5-dimethyl-7-phenyl-hepta-1,3-dienyl)-3,14,18,21-tetramethyl-2,5,8,13,17,20,24-heptaoxo-1,4,7,12,16,19hexaaza-cyclopentacosane-11,22-dicarboxylic acid]: the IC50 worked out at 1.5 nM. That is a single-digit nanomolar value.
`C=C1C(=O)N[C@H](CN)C(=O)N[C@@H](CC(C)C)C(=O)C[C@@H](C(=O)O)[C@H](C)C(=O)N[C@@H](C)C(=O)N[C@@H](/C=C/C(C)=C/[C@H](C)[C@H](Cc2ccccc2)OC)[C@H](C)C(=O)N[C@@H](C(=O)O)CCC(=O)N1C` [11,22-Dicarboxy-25-isobutyl-15-(6-methoxy-3,5-dimethyl-7-phenyl-hepta-1,3-dienyl)-7,14,18,21-tetramethyl-6-methylene-2,5,8,13,17,20,24-heptaoxo-1,4,7,12,16,19hexaaza-cyclopentacos-3-ylmethyl-ammonium] returned a half-maximal inhibitory concentration (IC50) of 9 nM. Against the preceding molecule, the IC50 is about 6-fold higher.
In turn, `C=C1C(=O)N[C@H](C)C(=O)N[C@@H](CC2CCCCC2)C(=O)C[C@@H](C(=O)O)[C@H](C)C(=O)N[C@@H](C)C(=O)N[C@@H](/C=C/C(C)=C/[C@H](C)[C@H](Cc2ccccc2)OC)[C@H](C)C(=O)N[C@@H](C(=O)O)CCC(=O)N1C` [25-Cyclohexylmethyl-15-(6-methoxy-3,5-dimethyl-7-phenyl-hepta-1,3-dienyl)-3,7,14,18,21-pentamethyl-6-methylene-2,5,8,13,17,20,24-heptaoxo-1,4,7,12,16,19hexaaza-cyclopentacosane-11,22-dicarboxylic acid] gave an IC50 of 3.4 nM. Against the preceding molecule, the IC50 is about 2.6-fold lower.
Under `CO[C@@H](Cc1ccccc1)[C@@H](C)/C=C(C)/C=C/[C@@H]1NC(=O)[C@H](C)NC(=O)[C@@H](C)[C@H](C(=O)O)CC(=O)[C@H](CC(C)C)NC(=O)[C@@H](C)NC(=O)CN(C)C(=O)CC[C@H](C(=O)O)NC(=O)[C@H]1C` [25-Isobutyl-15-(6-methoxy-3,5-dimethyl-7-phenyl-hepta-1,3-dienyl)-3,7,14,18,21-pentamethyl-2,5,8,13,17,20,24-heptaoxo-1,4,7,12,16,19hexaaza-cyclopentacosane-11,22-dicarboxylic acid] stands 1.5 nM; under `C=C1C(=O)N[C@H](C)C(=O)N[C@@H](CC(C)C)C(=O)C[C@@H](C(=O)O)[C@H](C)C(=O)N[C@@H](C)C(=O)N[C@@H](/C=C/C(C)=C/[C@H](C)[C@H](Cc2ccccc2)OC)[C@H](C)C(=O)N[C@@H](C(=O)O)CCC(=O)N1C` [25-Isobutyl-15-(6-methoxy-3,5-dimethyl-7-phenyl-hepta-1,3-dienyl)-3,7,14,18,21-pentamethyl-6-methylene-2,5,8,13,17,20,24-heptaoxo-1,4,7,12,16,19hexaaza-cyclopentacosane-11,22-dicarboxylic acid] ([NMeDha][dA][X1]A[Adda][dE]-OH; lactam N-6), 0.3 nM.
